For experiment [1], the target named is influenza A neuraminidase (N1) (Influenza A virus, UniProt P03468). Format: biochemical.
The test system of a further experiment is influenza neuraminidases. To be noted: Colman, 1999; cited from earlier work.
The test system of experiment [2] is bacterial or mammalian neuraminidases. To be noted: Colman, 1999; cited from earlier work.

Each structure is given as a SMILES string.

influenza A neuraminidase (N1), sequence (P03468 whole entry): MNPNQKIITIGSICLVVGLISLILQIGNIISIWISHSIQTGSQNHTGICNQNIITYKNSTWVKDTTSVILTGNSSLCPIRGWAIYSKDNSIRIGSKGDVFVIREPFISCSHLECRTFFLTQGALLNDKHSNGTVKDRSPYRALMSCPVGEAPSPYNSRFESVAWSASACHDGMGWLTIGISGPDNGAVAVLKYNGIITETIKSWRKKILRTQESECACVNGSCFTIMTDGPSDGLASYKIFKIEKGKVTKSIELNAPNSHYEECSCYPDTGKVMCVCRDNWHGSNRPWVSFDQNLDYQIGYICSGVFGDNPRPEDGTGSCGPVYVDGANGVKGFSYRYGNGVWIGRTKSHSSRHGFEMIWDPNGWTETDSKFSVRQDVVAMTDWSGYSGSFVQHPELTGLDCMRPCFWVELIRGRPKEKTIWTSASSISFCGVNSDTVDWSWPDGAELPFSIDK

Regarding `CC(=N)N[C@H]1[C@H]([C@H](NC(C)=O)[C@@H](C)O)OC(C(=O)O)=C[C@@H]1O` [Compound 8, 5-acetamidino-7-acetamido-3,5,7,9-tetradeoxy-D-glycero-D-galacto-non-2-enonate], in experiment [1], the “potency as inhibitor compared with ATA” value is given as “not as potent an inhibitor as Aurintricarboxylic acid (ATA)”. With `CC(=O)N[C@H]1[C@H]([C@H](O)[C@H](O)CO)OC(C(=O)O)=C[C@@H]1N=C(N)N` [zanamivir], in the experiment on influenza neuraminidases, the “potency against influenza neuraminidases” value is “very potent”. Further, the “potency against bacterial or mammalian neuraminidases” value in experiment [2] was “much less potent”.

The record behind these values is US8952183B2, “Inhibitors of sialidase or sialidase-like enzymes” (priority 2009, dated 2015).
